Measured values taken from patent US9643994B2, “Crystalline polymorphic form of ulipristal acetate” (ASKA PHARMACEUTICAL CO., LTD., priority 2012, dated 2017).
≈ marks a conversion by molar mass, not a printed value. Read-outs that look alike come from different tables or passages of the source.

Assay: Solubility in ethanol/water (10/90) mixed solvent at 37° C., HPLC quantitation
Type: physicochemical
Description: [Solubility] […] Then a portion of the suspension was separated.

Compound | Solubility [µg/mL] | Solubility (40 mg in 40 mL ethanol/water (volume ratio)=10/90, 37° C., stirred 5 minutes, filtered, HPLC UV 302 nm) [µg/mL]
CC(=O)O[C@]1(C(C)=O)CCC2C3CCC4=CC(=O)CCC4=C3[C@@H](c3ccc(N(C)C)cc3)C[C@@]21C (stereo partly drawn) [Comparative Example, 17alpha-acetoxy-11beta-(4-N,N-dimethylaminophenyl)-19-norpregna-4,9-diene-3,20-dione] | 6.4 (≈ 13.5 µM) | –
CC(=O)O[C@]1(C(C)=O)CCC2C3CCC4=CC(=O)CCC4=C3[C@@H](c3ccc(N(C)C)cc3)C[C@@]21C (stereo partly drawn) [Example 1, 17alpha-acetoxy-11beta-(4-N,N-dimethylaminophenyl)-19-norpregna-4,9-diene-3,20-dione] | – | 9.2
